In patent publication EP4467141A1, “PYRAZOLO-QUINOLINES AS SELECTIVE INHIBITORS OF GENOTOXIC STRESS-INDUCED IKK/NF- KB PATHWAYS FOR CANCER THERAPY” (Max-Delbrück-Centrum für Molekulare Medizin in der …, priority 2023, dated 2024):

Experiments:
Test in all cases: Kinase panel study
Type in all cases: biochemical
Conditions in all cases: read-out: Percentage of inhibition; for inhibition at 1 µM: 1000nM; for inhibition at 10 µM: 10000nM
RET S891A = target: T1, RET S891A (Homo sapiens, UniProt P07949, S891A)
T1 construct: purchased Thermo Fisher Scientific
T1 sequence (P07949 29-1114 S891A): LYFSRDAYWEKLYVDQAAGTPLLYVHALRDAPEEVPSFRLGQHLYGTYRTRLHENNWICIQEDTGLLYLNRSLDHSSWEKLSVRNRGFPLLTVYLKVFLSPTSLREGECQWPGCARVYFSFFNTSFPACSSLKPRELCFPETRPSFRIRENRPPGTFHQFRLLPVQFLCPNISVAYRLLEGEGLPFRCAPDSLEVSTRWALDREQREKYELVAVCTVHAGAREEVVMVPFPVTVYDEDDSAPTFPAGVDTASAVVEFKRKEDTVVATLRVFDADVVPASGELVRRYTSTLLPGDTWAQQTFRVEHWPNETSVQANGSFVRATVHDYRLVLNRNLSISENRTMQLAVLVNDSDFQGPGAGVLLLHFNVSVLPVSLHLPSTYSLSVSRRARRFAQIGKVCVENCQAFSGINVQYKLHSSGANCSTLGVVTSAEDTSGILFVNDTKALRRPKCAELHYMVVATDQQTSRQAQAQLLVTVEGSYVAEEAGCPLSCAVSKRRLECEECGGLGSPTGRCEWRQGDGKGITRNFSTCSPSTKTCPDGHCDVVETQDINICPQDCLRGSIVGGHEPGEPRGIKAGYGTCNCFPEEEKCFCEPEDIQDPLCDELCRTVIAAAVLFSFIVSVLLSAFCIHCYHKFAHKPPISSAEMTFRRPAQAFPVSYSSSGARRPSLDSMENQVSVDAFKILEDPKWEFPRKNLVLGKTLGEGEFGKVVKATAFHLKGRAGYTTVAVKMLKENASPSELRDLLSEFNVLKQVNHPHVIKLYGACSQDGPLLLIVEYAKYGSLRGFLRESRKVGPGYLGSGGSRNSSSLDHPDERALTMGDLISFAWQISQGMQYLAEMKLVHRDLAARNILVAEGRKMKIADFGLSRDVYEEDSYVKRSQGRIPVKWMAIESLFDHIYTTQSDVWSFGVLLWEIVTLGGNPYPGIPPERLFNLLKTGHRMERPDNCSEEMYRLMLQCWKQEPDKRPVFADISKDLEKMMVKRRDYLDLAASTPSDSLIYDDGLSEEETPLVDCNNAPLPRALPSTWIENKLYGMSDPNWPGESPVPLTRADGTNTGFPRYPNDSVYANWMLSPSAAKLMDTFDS
Outline: (§1)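 Percent inhibition of each kinase by the test compound, given at either 1 µM or 10 µM, came from a contracted panel run by ZLyte or Adapta protocol.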

ITK = target: T2, ITK (Homo sapiens, UniProt Q08881)
T2 construct: purchased Thermo Fisher Scientific
T2 sequence (Q08881 1-620): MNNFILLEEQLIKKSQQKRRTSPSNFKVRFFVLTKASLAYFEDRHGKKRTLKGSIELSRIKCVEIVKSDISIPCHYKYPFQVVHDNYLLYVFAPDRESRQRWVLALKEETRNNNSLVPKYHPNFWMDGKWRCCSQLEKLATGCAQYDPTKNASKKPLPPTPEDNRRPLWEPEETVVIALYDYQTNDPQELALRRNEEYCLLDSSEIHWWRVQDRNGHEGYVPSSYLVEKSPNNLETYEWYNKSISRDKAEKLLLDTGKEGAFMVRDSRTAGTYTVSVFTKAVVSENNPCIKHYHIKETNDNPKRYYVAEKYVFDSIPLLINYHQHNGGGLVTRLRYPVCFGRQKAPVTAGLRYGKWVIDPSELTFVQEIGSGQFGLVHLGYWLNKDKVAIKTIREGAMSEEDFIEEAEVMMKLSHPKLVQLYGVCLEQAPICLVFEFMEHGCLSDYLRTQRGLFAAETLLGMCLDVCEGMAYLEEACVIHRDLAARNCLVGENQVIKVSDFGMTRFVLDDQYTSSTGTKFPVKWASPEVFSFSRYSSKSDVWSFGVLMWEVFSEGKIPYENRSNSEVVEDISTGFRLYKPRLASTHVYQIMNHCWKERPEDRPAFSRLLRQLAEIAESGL
Outline: as §1

FYN = target: T3, FYN (Homo sapiens, UniProt P06241)
T3 construct: purchased Thermo Fisher Scientific
T3 sequence (P06241 whole entry): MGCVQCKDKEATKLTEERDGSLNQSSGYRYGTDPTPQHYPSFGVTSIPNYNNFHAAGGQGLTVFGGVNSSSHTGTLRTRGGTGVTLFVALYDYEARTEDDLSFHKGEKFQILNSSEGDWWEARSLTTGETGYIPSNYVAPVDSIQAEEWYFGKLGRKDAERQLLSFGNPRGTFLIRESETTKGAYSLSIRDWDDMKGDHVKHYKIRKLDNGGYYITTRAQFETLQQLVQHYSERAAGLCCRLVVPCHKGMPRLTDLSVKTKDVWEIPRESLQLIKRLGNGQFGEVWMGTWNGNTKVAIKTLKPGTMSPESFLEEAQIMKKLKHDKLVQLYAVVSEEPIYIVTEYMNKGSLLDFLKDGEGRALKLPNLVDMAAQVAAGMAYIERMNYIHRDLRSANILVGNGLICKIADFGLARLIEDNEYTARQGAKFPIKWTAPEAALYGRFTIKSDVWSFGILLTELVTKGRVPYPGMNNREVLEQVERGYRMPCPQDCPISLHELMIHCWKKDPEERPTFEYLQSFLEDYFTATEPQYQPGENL
Outline: as §1

TEK (TIE2) Y897S = target: T4, TEK (TIE2) Y897S (Homo sapiens, UniProt Q02763, Y897S)
T4 construct: purchased Thermo Fisher Scientific
T4 sequence (Q02763 23-1124 Y897S): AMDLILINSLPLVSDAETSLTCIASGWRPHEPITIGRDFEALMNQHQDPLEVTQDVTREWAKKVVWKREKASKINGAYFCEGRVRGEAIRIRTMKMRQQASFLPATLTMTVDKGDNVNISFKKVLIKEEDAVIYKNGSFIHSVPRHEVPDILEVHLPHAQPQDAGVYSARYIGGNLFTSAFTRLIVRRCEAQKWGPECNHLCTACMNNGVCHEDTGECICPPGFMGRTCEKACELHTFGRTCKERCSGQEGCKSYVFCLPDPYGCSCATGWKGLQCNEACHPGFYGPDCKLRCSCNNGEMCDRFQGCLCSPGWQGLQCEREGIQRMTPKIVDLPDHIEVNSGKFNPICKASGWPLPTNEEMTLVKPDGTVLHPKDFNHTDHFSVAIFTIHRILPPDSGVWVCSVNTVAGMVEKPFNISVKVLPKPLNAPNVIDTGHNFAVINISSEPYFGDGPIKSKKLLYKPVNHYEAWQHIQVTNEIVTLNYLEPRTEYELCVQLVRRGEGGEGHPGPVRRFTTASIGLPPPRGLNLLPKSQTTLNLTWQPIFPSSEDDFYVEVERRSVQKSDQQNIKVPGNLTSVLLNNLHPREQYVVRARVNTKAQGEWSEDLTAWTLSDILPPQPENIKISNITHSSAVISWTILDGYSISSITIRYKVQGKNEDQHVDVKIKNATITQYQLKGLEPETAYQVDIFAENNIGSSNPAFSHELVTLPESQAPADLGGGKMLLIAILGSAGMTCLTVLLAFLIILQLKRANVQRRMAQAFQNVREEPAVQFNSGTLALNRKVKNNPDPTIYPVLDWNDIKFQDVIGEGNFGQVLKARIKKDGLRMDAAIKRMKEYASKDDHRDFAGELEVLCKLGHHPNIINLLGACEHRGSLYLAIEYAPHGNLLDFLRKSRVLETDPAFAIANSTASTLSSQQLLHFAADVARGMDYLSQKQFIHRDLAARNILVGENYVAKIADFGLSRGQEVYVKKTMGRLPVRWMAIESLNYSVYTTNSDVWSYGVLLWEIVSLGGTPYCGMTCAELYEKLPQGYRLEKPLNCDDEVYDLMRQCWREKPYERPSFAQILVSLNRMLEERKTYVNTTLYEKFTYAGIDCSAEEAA
Outline: as §1

RET V804E = target: T5, RET V804E (Homo sapiens, UniProt P07949, V804E)
T5 construct: purchased Thermo Fisher Scientific
T5 sequence (P07949 29-1114 V804E): as the sequence (P07949 29-1114 S891A) above, with V776E, A863S counted along it
Outline: as §1

JAK3 = target: T6, JAK3 (Homo sapiens, UniProt P52333)
T6 construct: purchased Thermo Fisher Scientific
T6 sequence (P52333 1-1124): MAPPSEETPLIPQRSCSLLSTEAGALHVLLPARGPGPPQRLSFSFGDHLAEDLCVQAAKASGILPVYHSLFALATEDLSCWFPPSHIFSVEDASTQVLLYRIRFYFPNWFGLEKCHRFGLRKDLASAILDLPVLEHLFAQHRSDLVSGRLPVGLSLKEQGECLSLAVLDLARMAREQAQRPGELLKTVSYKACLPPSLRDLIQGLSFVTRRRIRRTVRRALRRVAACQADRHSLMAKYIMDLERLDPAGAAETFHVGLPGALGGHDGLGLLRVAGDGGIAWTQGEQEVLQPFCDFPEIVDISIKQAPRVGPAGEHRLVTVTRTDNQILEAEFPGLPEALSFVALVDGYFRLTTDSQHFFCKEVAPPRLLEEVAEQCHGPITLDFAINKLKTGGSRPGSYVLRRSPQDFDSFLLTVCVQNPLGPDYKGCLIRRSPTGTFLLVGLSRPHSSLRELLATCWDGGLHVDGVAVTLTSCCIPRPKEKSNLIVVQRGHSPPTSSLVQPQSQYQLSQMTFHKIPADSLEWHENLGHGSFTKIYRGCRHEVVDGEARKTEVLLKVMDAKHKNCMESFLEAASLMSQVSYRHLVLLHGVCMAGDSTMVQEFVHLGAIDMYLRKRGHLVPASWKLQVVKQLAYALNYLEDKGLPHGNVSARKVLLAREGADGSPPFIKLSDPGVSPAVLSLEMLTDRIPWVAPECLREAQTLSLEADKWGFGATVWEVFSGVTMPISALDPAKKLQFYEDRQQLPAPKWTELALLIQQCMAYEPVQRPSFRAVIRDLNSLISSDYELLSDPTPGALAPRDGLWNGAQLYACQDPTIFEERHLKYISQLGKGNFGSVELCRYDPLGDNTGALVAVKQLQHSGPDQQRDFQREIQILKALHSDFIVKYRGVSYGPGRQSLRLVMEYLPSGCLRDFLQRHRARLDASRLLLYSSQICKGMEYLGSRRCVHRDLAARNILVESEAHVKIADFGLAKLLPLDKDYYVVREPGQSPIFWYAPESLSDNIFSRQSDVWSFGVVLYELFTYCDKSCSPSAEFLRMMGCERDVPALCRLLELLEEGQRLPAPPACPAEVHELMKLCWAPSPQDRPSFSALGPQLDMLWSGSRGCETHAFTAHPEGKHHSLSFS
Outline: as §1

FGFR3 K650E = target: T7, FGFR3 K650E (Homo sapiens, UniProt P22607, K650E)
T7 construct: purchased Thermo Fisher Scientific
T7 sequence (P22607 23-806 K650E): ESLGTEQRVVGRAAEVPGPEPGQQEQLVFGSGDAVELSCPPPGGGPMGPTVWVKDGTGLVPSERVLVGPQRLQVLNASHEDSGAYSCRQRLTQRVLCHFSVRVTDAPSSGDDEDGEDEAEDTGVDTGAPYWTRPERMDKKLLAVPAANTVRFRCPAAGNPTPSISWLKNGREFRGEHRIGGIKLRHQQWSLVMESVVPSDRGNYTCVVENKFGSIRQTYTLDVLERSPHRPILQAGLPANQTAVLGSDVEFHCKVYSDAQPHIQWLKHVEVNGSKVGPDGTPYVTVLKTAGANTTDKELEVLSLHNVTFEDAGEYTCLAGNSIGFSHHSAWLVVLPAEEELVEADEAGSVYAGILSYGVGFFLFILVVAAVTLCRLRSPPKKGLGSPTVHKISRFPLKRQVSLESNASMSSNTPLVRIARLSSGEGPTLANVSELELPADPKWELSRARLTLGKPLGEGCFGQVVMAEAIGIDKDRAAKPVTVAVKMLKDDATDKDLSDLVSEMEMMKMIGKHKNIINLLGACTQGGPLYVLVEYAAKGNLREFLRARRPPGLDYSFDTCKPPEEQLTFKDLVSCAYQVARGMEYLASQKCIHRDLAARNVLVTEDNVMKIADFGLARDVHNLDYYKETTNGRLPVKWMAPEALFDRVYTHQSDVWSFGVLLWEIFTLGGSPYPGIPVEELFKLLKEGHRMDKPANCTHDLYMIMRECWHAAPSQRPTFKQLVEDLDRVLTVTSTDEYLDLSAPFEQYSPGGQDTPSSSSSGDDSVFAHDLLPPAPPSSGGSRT
Outline: as §1

Row | Compound | inhibition at 1 µM (RET S891A) [%] | inhibition at 10 µM (RET S891A) [%] | inhibition at 1 µM (ITK) [%] | inhibition at 10 µM (ITK) [%] | inhibition at 1 µM (FYN) [%] | inhibition at 10 µM (FYN) [%] | inhibition at 1 µM (TEK (TIE2) Y897S) [%] | inhibition at 10 µM (TEK (TIE2) Y897S) [%] | inhibition at 1 µM (RET V804E) [%] | inhibition at 10 µM (RET V804E) [%] | inhibition at 1 µM (JAK3) [%] | inhibition at 10 µM (JAK3) [%] | inhibition at 1 µM (FGFR3 K650E) [%] | inhibition at 10 µM (FGFR3 K650E) [%]
1 | COc1ccc2c(c1OC)c(=O)n1c3ccc(O)cc3c3ccnc2c31 [MW01, 5-Hydroxy-10,11-dimethoxy-9H-benzo[c]indolo[3,2,1-ij][1,5]naphthyridin-9-one] | -3 | 30 | 0 | -2 | 3 | 15 | -14 | -10 | 5 | 17 | 9 | 20 | 6 | 16
2 | COc1ccc2cc3c(N)nn(C(=O)c4cccc(N(C)C)c4)c3nc2c1 [MW05, (3-Amino-7-methoxypyrazolo[3,4-b]quinolin-1-yl)-[3-(dimethylamino)phenyl]methanone] | -15 | -18 | -10 | -6 | 4 | 5 | -18 | -11 | 1 | -7 | 4 | -6 | 8 | -3
